Measured values as given in patent US20260232644A1, “Compositions Comprising an Inhibitor of Galectin-3” (University of Liverpool, priority 2023, published 2026).
Structures can show the parent of a compound that is named as a salt.

Legend:
[1] = target: T1, Galectin-3 (Homo sapiens, UniProt P17931); test: Galectin-3 binding to asialofetuin (ASF) ELISA; conditions: for Inhibition of Galectin-3 binding to its ligand asialofetuin (ASF): Galectin-3 5 μg/ml, ASF 20 μg/ml, different concentrations of compound, ELISA; for IC50: read-out: IC50, inhibition of Galectin-3 binding to its ligand
T1 construct: made in house; host or cells: E. coli
T1 sequence (P17931 whole entry): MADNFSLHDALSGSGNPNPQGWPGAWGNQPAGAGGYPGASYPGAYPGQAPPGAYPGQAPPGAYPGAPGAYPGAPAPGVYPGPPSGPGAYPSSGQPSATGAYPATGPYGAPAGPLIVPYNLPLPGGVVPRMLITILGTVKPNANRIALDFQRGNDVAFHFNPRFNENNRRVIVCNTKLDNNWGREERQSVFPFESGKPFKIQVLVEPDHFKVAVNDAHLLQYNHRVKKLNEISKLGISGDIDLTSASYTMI
Procedure: (§1) Effect of the inhibitors on galectin binding to its ligand asialo fetuin (ASF) was measured by galectin ELISA. Nanty-six well plates were coated overnight with 20 μg/ml ASF in coating buffer (15 mM Na2CO3 17 mM NaHCO3 pH 9.6.). The wells were washed twice with PBS and incubated with blocking buffer (1% BSA in PBS) for 1 hr. The supernatants were removed and replaced with 5 μg/ml recombinant human galectin without or with different concentrations of the compound inhibitors or lactose in blocking buffer for 1 hr at room temperature. The wells were washed and incubated with 1 μg/ml anti-galectin antibody for 2 hr. Following addition of HRP-conjugated secondary antibody for 1 hr, FAST OPD development solution was added for 15-20 minutes. The reaction was terminated by addition of 4M sulphuric acid. The plates were read at 492 nm (reference wavelength 595 nm) by a microplate reader.

[2] = target: T2, full-length galectin-3 (Homo sapiens, UniProt P17931); test: Tryptophan Fluorescence Spectroscopy (TFS) binding affinity, full-length Galectin-3
T2 construct: made in house; host or cells: E. coli
T2 sequence (P17931 whole entry): as above
Procedure: The binding affinity of the inhibitors to galectin-3 was determined by Intrinsic Tryptophan Fluorescence Spectroscopy (TFS) exactly as we described recently [Sindrewicz, P., et al., Intrinsic tryptophan fluorescence spectroscopy reliably determines galectin-ligand interactions. Sci Rep, 2019. 9(1): p. 11851]. The Galectin-3 concentration used was 10 μM and the inhibitor titration concentrations were from 0 to 224 μM. DMSO/control buffer (PBS with 2 mM EDTA) titrations were performed and used for background subtraction.

[3] = test system: human colon cancer SW620 cells; test: Galectin-3-mediated SW620 cell adhesion to HUVECs; assay type: cell-based; conditions: Galectin-3 2 μg/ml, various concentrations
Procedure: HUVEC cells at 1×10^5 cells/ml in EGM medium were seeded into 24 well plates pre-inserted with 13 mm glass coverslip. The cells were incubated at 37° C. at 5% CO2 for 24 hr for monolayer formation. AGA19+ or SW620 cell suspension (5×10^5 cells/ml in DMEM) was introduced with 5 μl/ml fluorescent cell labelling solution DiL for 30 min at 37° C. The fluorescent labelled cells were washed twice with PBS and resuspended into 1×10^5 cells/ml in DMEM. The cancer cell suspension was then introduced with galectin-3 (2 μg/ml) and various concentrations of the compound inhibitors at 37° C. for 1 hr. The wells were carefully washed twice with PBS to remove the non-adhesion cells before the cells in the wells were fixed with 2% paraformaldehyde for 10 min. The glass coverslip was carefully removed from the plate, placed on a glass slide. After addition of fluorescence mounting medium containing DAPI, fluorescence labelled cells were quantified under a fluorescence microscope.

[4] = test system: human colon cancer SW620 cells; test: SW620 cell invasion through HUVECs (transwell); assay type: cell-based; conditions: Galectin-3 1 ug/ml, transwells, several concentrations
Procedure: HUVECs were plated at a density of 1.5×10^4 cells in 8 μm pore transwells in 24-well plate and cultured for three days to allow formation of tight monolayer. The integrity of HUVEC monolayer was confirmed by measuring TEER and only monolayers with TEER reading>800 Ω/cm^2 were used for the invasion assay. AGA19+ or SW620 cell suspension (5×10^5 cells/ml in DMEM) was introduced with 5 μl/ml fluorescent cell labelling solution DiL for 30 min at 37° C. The fluorescence labelled cells were washed twice with PBS and resuspended into 1×10^5 cells/ml in DMEM. […] The cells at the upper side of the trans-well inserts were gently removed with cotton swabs. The cells migrated to the bottom side of the transwells were fixed with 2% paraformaldehyde for 10 min. The trans-well membrane was removed and placed on glass slides. After addition of fluorescence mounting medium containing DAPI, the fluorescence labelled cells on the membrane were quantified under a fluorescence microscope.

[5] = test system: human umbilical vein endothelial cells (HUVECs); test: Vascular cell tubule formation (angiogenesis); assay type: cell-based; conditions: Galectin-3 2 μg/ml, various concentrations
Procedure: Matrigel matrix (50 μl) was added to 96-well plates for 60 min at 37° C. to allow gel formation. HUVEC cells (1×10^5 cells/ml in 1:1 EGM/EBM2 media) was introduced to the plates without or with galectin-3 (2 μg/ml) or different concentrations of compound inhibitors for 24 hr at 37° C. Endothelial cell tube formation was examined with Laser Microscope. The total number of branching points and the sum of the lengths of tubes were measured.

[6] = test system: human colon cancer SW620 cells; test: LDH release cytotoxicity assay, SW620; assay type: cell-based; conditions: various concentrations
Procedure: (§6) SW620 cells (5×10^4 cells/ml) were seeded into 96-well plate in DMEM (and incubated at 37° C. 5% CO2 for 24 hr. HUVECs (1.0×10^5 cells/ml) was seeded in EBM medium and incubated for 24-36 hr until they formed a monolayer. Compound inhibitors at different concentrations were then introduced to the cells (10× lysis buffer was included as maximum LDH activity control) for 24 hr. The culture medium was transferred to a new plate and was mixed with equal volume of reaction mixture provided in the kit for 30 min at room temperature before the absorbance was measured at 490 nm (reference 680 nm) by a spectrophotometer.

[7] = test system: vascular HUVECs; test: LDH release cytotoxicity assay, HUVECs; assay type: cell-based, human; conditions: various concentrations
Procedure: as §6

[8] = test system: THP-1 differentiated macrophages; test: Galectin-3-induced TNFα secretion from macrophages (ELISA); assay type: cell-based; conditions: Galectin-3 10 μg/ml, various concentrations
Procedure: (§2) Effect of the compound inhibitors on secretion of pro-inflammatory cytokines from macrophages were assessed in THP-1 monocyte differentiated macrophages. THP-1 cells were induced to differentiation into macrophages by incubation with 10 ng/ml PMA for 48 h at 37° C. The culture medium was then replaced with fresh medium without or with 10 μg/ml galectin-3 and various concentrations of the compound inhibitors for 24 h at 37° C. The culture medium was collected and the concentrations of TNFα and IL-1β in the culture medium were determined by TNFα and IL-1β ELISA.

[9] = test system: THP-1 differentiated macrophages; test: Galectin-3-induced IL-1β secretion from macrophages (ELISA); assay type: cell-based; conditions: Galectin-3 10 μg/ml, various concentrations
Procedure: as §2

[10] = test system: human lung cancer H1975 cells; test: Lung cancer cell adhesion to basement matrix; assay type: cell-based; conditions: for IC50: Homo sapiens, NCI-H1975; for Inhibition of H1975 cell adhesion to matrix: different concentrations
Procedure: (§3) Nanty-six well plates were coated with 50 μl Matrigel (1:30 diluted in PBS) at 37° C. for 1 hour.
(§4) Cancer cells, pre-labelled with fluorescent die DiI at 37° C. for 20 minutes, were washed twice with PBS and resuspended into 3×10^4 cells/ml in serum-free medium. The matrix-coated 96-well plates were washed twice with PBS before introduction of 100μ cell suspension with different concentrations of the inhibitors or PBS/DMSO (control) for 1 hour at 37° C. The plates were washed twice with PBS before three randomly selected Field of Views (FOVs) were recorded by fluorescence microscope and number of adhesion cells were quantified by Image J.

[11] = test system: triple-negative breast cancer MDA-MB-231 cells; test: Triple-negative breast cancer cell adhesion to basement matrix; assay type: cell-based, human; conditions: for Effect on adhesion of galectin-3 knockout (Gal3KO) MDA-MB-231 cells: CRISPR/Cas9 Gal3KO cells; for Effect on adhesion of non-transfected (con) MDA-MB-231 cells: control cells; for Inhibition of MDA-MB-231 cell adhesion to matrix: different concentrations
Procedure: as §3, §4
(§5) MDAMB-231 or PANC-1 cells were seeded into 6-well plate (2×10^5 cells) and cultured at 37° C. for 24 hour. Galectin-3 CRISPR Cas9 Knockout plasmid (2 μg) and galectin-3 HDR plasmid (2 μg) was mixed with Plasmid Transfection Medium (21 μl) for 5 minutes before addition to a mixture of lipofectamine STEM Transfection Reagent (STEM00001) (1 μl) and Plasmid Transfection Medium (25 μl) for 10 minutes at room temperature. The cells in the 6-well plates were washed and introduced with the Plasmid DNA/Lipofectamine STEM Transfection Reagent complex at 37° C. for 24 hour. The culture medium was replaced with fresh antibiotics-free medium for further 24 hour before introduction of 10 μg/mL puromycin-containing medium every three days. Successful co-transfection of the CRISPR/Cas9 KO Plasmid and HDR Plasmid was confirmed by expression of red fluorescence protein of the cells. Galectin-3 knockout in the cells was further confirmed by immunoblotting.

[12] = test system: human pancreatic cancer PANC1 cells; test: Pancreatic cancer cell adhesion to basement matrix; assay type: cell-based; conditions: for Effect on adhesion of galectin-3 knockout (Gal3KO) PANC1 cells: CRISPR/Cas9 Gal3KO cells; for Effect on adhesion of non-transfected (con) PANC1 cells: control cells; for Inhibition of PANC1 cell adhesion to matrix: different concentrations
Procedure: as §3, §4, §5

[13] = test system: human breast cancer cells; conditions: by suppressing activation of NFKB induced by TNFα; cited from earlier work
[14] = test system: human colon cancer cells; conditions: cited from earlier work
[15] = target: T3, Galectin-8 (Homo sapiens, UniProt O00214); test: Galectin-8 binding to asialofetuin ELISA; conditions: Gal-8 5 μg/ml, ASF 20 μg/ml
T3 construct: purchased R&D Systems (Abingdon, UK)
T3 sequence (O00214 1-317): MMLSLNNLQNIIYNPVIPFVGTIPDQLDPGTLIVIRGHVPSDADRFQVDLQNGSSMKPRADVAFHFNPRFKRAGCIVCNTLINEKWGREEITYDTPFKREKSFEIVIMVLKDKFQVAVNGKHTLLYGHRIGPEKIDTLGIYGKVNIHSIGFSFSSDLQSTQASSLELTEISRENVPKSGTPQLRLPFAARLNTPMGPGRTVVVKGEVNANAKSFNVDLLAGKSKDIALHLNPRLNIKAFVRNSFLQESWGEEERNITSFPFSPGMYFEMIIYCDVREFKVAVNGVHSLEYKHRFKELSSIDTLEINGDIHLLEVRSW
Procedure: as §1

Row | Structure (SMILES) | Inhibition of Galectin-3 binding to its ligand asialofetuin (ASF) [1] | IC50 [1] | Kd [2] | Inhibition of SW620 cell adhesion to HUVECs [3] | Inhibition of galectin-3-mediated invasion of SW620 cells through HUVECs [4] | Inhibition of tubule numbers [5] | Inhibition of vascular tubule length [5] | Cytotoxicity to SW620 cells (LDH release) [6] | Cytotoxicity to HUVEC cells (LDH release) [7] | Inhibition of galectin-3-induced TNFα secretion [8] | Inhibition of galectin-3-induced IL-1β secretion [9] | IC50 [10] | Inhibition of H1975 cell adhesion to matrix [10] | Effect on adhesion of galectin-3 knockout (Gal3KO) MDA-MB-231 cells [11] | Effect on adhesion of non-transfected (con) MDA-MB-231 cells [11] | Inhibition of MDA-MB-231 cell adhesion to matrix [11] | Effect on adhesion of galectin-3 knockout (Gal3KO) PANC1 cells [12] | Effect on adhesion of non-transfected (con) PANC1 cells [12] | Inhibition of PANC1 cell adhesion to matrix [12] | also measured
1 | CN(C)CCOc1ccc(/C(=C(/CCCl)c2ccccc2)c2ccccc2)cc1 [Formula Z, Toremifene citrate] | inhibit galectin-3 binding to ASF in a dose-dependent manner | ≤ 10 µM | ~35 µM | dose-dependent inhibition | dose-dependent inhibition | dose-dependent inhibition | dose-dependent inhibition | low cytotoxicity | low cytotoxicity | dose-dependent inhibition | dose-dependent inhibition | 5 to 10 µM | dose-dependent inhibition | lost their inhibitory effect | significant reduction | dose-dependent inhibition | lost their inhibitory effect | significant reduction | dose-dependent inhibition | 
2 | Cc1c(O)cccc1C(=O)N[C@@H](CSc1ccccc1)[C@H](O)CN1C[C@H]2CCCC[C@H]2C[C@H]1C(=O)NC(C)(C)C [Formula Y, Nelfinavir mesylate] | inhibit galectin-3 binding to ASF in a dose-dependent manner | ≤ 10 µM | ~90 µM | dose-dependent inhibition | dose-dependent inhibition | dose-dependent inhibition | dose-dependent inhibition | little or low toxicity | little or low toxicity | dose-dependent inhibition | dose-dependent inhibition | ~5 µM | dose-dependent inhibition | lost their inhibitory effect | significant reduction | dose-dependent inhibition | lost their inhibitory effect | significant reduction | dose-dependent inhibition | IC50 ([11]; Homo sapiens, MDA-MB-231): ~10 µM
3 | CO/N=C1\CN(c2nc3c(cc2F)c(=O)c(C(=O)O)cn3C2CC2)CC1CN (stereo not drawn) [Formula W, Gemifloxacin] |  |  |  |  |  |  |  |  |  |  |  |  |  |  |  |  |  |  |  | Effect on migration, invasion and metastasis in human breast cancer cells [13]: inhibit migration, invasion and metastasis; Effect on migration and invasion of human colon cancer cells [14]: inhibit migration and invasion
4 | OC[C@H]1O[C@@H](O[C@H]2[C@H](O)[C@@H](O)C(O)O[C@@H]2CO)[C@H](O)[C@@H](O)[C@H]1O (stereo partly drawn) [lactose] |  |  |  |  |  |  |  |  |  |  |  |  |  |  |  |  |  |  |  | Effect on Galectin-8 binding to asialofetuin [15]: dose-dependently inhibits
